Measurements: US9181181B2, “2-substituted-3-phenylpropionic acid derivatives and their use in the treatment of inflammatory bowel disease” (Albireo AB, priority 2007, dated 2015)

Legend:
[1] = target: human PPARalpha (Homo sapiens (Human), UniProt Q07869); assay: Transactivation (reporter gene) assay, GAL4-PPARalpha LBD in U-2 OS cells; format: cell-based; conditions: 40 h incubation, 16 μM ETYA as 100% control, read-out: EC50 PPARα
Protocol: (§1) Transactivation Assay Expression vectors were prepared by inserting the ligand binding domain cDNA (complementary DNA) of human PPARalpha (amino acid 168-468) and human PPARgamma (amino acid 205-505), 3′ to and in frame with, the yeast GAL4 transcription factor DNA binding domain and the nuclear localization signal from the T-antigen of Polyoma Virus into the mammalian expression vector pSGS (Stratagene). The resulting expression vectors pSGGAL-PPARalpha and pSGGAL-PPARgamma were used in co-transfection experiments together with a modified pGL3 promoter plasmid (Promega) containing five copies of the UAS GAL4 recognition site. 2.5 μg pSGGAL-PPARalpha or pSGGAL-PPARgamma were mixed with 25 μg pGL3p […] and 22.5 μg pBluescript (Stratagene) in 0.95 mL ice cold PBS containing between 9-12 million U-2 OS (human osteosarcoma) cells. The cell/DNA mixture was incubated on ice for 5 minutes and then divided between two 0.4 cm cuvettes and electroporated at 960 μF, 230 V using a BioRad electroporator. The two electroporation mixes were combined in assay medium [Dulbecco's Modified Eagle Medium w/o phenol red, (Gibco 11880-028) including 10% FBS (Foetal Bovine Serum), 1% PEST (Penicillin & Streptomycin), 20 mM Hepes, 2 mM L-Glutamine and 0.36% Glucose (Gibco 31966-021)] at 0.32 million cells/ml. 25 μl diluted, electroporated cells, were seeded into 384-well plates and allowed to adhere for 3-4 h at 37° C., 5% CO2 in a cell culture incubator. Test compounds in DMSO were diluted 40 fold in assay medium. 7 μl of diluted compound was added to the adhered electroporated cells and incubation was continued for 40 h in a cell culture incubator. Cells were lysed by adding 32 μl/well LucLite (Packard) and incubated at room temperature for 15 minutes. Luciferase activity was measured using a luminometry protocol on a Wallac Victor2 plate reader. 16 μM ETYA was used as the 100% control for humanPPARalpha activity and 16 μM Pioglitazone was used as the 100% control for humanPPARgamma activity. In Vivo Assay Determination of Plasma Clearance and Oral Bioavailability in Hamster or Mouse

[2] = target: human PPARgamma (Homo sapiens (Human), UniProt P37231); assay: Transactivation (reporter gene) assay, GAL4-PPARgamma LBD in U-2 OS cells; format: cell-based; conditions: 40 h incubation, 16 μM Pioglitazone as 100% control, read-out: EC50 PPARγ
human PPARgamma, sequence (P37231 205-505): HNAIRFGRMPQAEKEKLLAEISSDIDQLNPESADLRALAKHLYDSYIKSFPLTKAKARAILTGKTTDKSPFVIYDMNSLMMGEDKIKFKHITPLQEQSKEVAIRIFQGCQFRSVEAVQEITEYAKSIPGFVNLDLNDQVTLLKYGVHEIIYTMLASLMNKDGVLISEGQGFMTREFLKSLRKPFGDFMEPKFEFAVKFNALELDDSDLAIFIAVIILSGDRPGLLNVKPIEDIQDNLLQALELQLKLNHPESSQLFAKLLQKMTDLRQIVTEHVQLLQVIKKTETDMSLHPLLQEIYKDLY
Protocol: as §1

human PPARalpha, sequence (Q07869 168-468): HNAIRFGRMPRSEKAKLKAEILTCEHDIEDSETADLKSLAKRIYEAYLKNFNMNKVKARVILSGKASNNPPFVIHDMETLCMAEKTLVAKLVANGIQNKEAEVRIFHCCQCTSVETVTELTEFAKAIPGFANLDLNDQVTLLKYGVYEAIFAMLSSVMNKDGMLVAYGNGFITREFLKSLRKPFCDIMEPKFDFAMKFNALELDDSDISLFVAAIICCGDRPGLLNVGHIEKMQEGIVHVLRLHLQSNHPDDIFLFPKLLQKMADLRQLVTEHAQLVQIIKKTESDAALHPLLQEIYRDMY

Compound: O=C(Cc1cccc(SCc2ccccc2C(=O)O)c1)OCc1ccc(C(F)(F)F)cc1 [Example 28, 2-[3-(4-Trifluoromethyl-benzyloxycarbonylmethyl)-phenylsulfanylmethyl]-benzoic acid]
- EC50 [1]: 1300 nM
- EC50 [2]: 2500 nM

Compound: O=C(Cc1cccc(SCc2ccccc2C(=O)O)c1)OCCc1ccccc1C(F)(F)F [Example 38, 2-{3-[2-(2-Trifluoromethylphenyl)ethoxycarbonylmethyl]phenylsulfanylmethyl}-benzoic acid]
- EC50 [1]: 3800 nM
- EC50 [2]: 9000 nM

Compound: O=C(Cc1cccc(SCc2ccccc2C(=O)O)c1)OCc1ccc(-n2cccn2)cc1 [Example 42, 2-[3-(4-Pyrazol-1-yl-benzyloxycarbonylmethyl)-phenylsulfanylmethyl]-benzoic acid]
- EC50 [1]: 18000 nM
- EC50 [2]: 4200 nM

Compound: O=C(Cc1ccc(CC(C(=O)O)S(=O)(=O)CCc2ccc(F)cc2)cc1)OCc1ccc(C(F)(F)F)cc1 (stereo not shown) [Example 17, 2-[2-(4-Fluoro-phenyl)-ethanesulfonyl]-3-[4-(4-trifluoromethyl-benzyloxycarbonylmethyl)-phenyl]-propionic acid]
- EC50 [1]: 4400 nM
- EC50 [2]: 18000 nM

Compound: CCOC(Cc1ccc(C(=O)OCc2ccc(OS(C)(=O)=O)cc2)cc1)C(=O)O (stereo not shown) [Example 27, 4-(2-Carboxy-2-ethoxy-ethyl)-benzoic acid 4-methanesulfonyloxy-benzyl ester]
- EC50 [2]: 1400 nM

Compound: COc1ccc(CC(=O)OCc2ccc(CC(SCCc3ccc(F)cc3)C(=O)O)cc2)cc1 (stereo not shown) [Example 8]
- EC50 [1]: 270 nM
- EC50 [2]: 2500 nM

Compound: CC(C(=O)OCc1ccc(CC(SCCc2ccc(F)cc2)C(=O)O)cc1)c1ccccc1 (stereo not shown) [Example 7, 2-[2-(4-Fluoro-phenyl)-ethylsulfanyl]-3-[4-(2-phenyl-propionyloxymethyl)-phenyl]-propionic acid]
- EC50 [1]: 18000 nM
- EC50 [2]: 1700 nM

Compound: O=C(Cc1ccc(SCc2ccccc2C(=O)O)cc1)OCCc1ccccc1C(F)(F)F [Example 40, 2-{4-[2-(2-Trifluoromethylphenyl)ethoxycarbonylmethyl]phenylsulfanylmethyl}-benzoic acid]
- EC50 [1]: 760 nM
- EC50 [2]: 8200 nM

Compound: CS(=O)(=O)Oc1ccc(COC(=O)Cc2ccc(CC(SCCc3ccc(F)cc3)C(=O)O)cc2)cc1 (stereo not shown) [Example 4, 2-[2-(4-Fluoro-phenyl)-ethylsulfanyl]-3-[4-(4-methanesulfonyloxy-benzyloxycarbonylmethyl)-phenyl]-propionic acid]
- EC50 [1]: 1400 nM

Compound: O=C(Cc1cccc(SCc2ccccc2C(=O)O)c1)OCCc1ccc(C(F)(F)F)cc1 [Example 32, 2-{3-[2-(4-Trifluoromethyl-phenyl)-ethoxycarbonylmethyl]-phenylsulfanylmethyl}-benzoic acid]
- EC50 [1]: 5500 nM
- EC50 [2]: 3000 nM

Compound: CCO[C@@H](Cc1ccc(OC(=O)Cc2ccc(NC(=O)OC(C)(C)C)cc2)cc1)C(=O)O [Example 22, (S)-3-{4-[2-(4-tert-Butoxycarbonylamino-phenyl)-acetoxy]-phenyl}-2-ethoxy-propionic acid]
- EC50 [1]: 18000 nM
- EC50 [2]: 18000 nM

Compound: O=C(Cc1ccc(CC(SCCc2ccc(F)cc2)C(=O)O)cc1)OCc1ccc(C(F)(F)F)cc1 (stereo not shown) [Example 3, 2-[2-(4-Fluoro-phenyl)-ethylsulfanyl]-3-[4-(4-trifluoromethyl-benzyloxycarbonylmethyl)-phenyl]-propionic acid]
- EC50 [1]: 56 nM
- EC50 [2]: 1700 nM

Compound: Cc1cccc(C)c1COC(=O)Cc1ccc(SCc2ccccc2C(=O)O)cc1 [Example 33, 2-[4-(2,6-Dimethyl-benzyloxycarbonylmethyl)-phenylsulfanylmethyl]-benzoic acid]
- EC50 [1]: 620 nM
- EC50 [2]: 18000 nM

Compound: O=C(OCc1ccc(CC(SCCc2ccc(F)cc2)C(=O)O)cc1)c1nc(-c2ccccc2)oc1C(F)(F)F (stereo not shown) [Example 13, 2-Phenyl-5-trifluoromethyl-oxazole-4-carboxylic acid 4-{2-carboxy-2-[2-(4-fluoro-phenyl)-ethylsulfanyl]-ethyl}-benzyl ester]
- EC50 [1]: 12 nM
- EC50 [2]: 30 nM

Compound: CCOC(Cc1ccc(OC(=O)Cc2nc(-c3ccccc3)oc2C)c(Cc2ccccc2)c1)C(=O)O (stereo not shown) [Example 23, 3-{3-Benzyl-4-[2-(5-methyl-2-phenyl-oxazol-4-yl)-acetoxy]-phenyl}-2-ethoxy-propionic acid]
- EC50 [2]: 53 nM

Compound: CC(OC(=O)Cc1cccc(SCc2ccccc2C(=O)O)c1)c1ccc(C(F)(F)F)cc1 (stereo not shown) [Example 31, 2-{3-[1-(4-Trifluoromethyl-phenyl)-ethoxycarbonylmethyl]phenylsulfanylmethyl}-benzoic acid]
- EC50 [1]: 18000 nM
- EC50 [2]: 3500 nM

Compound: CCOC(Cc1ccc(OC(=O)Cc2ccc(NC(=O)OC(C)(C)C)cc2)c(Cc2ccccc2)c1)C(=O)O (stereo not shown) [Example 24, 3-{3-Benzyl-4-[2-(4-tert-butoxycarbonylamino-phenyl)-acetoxy]-phenyl}-2-ethoxy-propionic acid]
- EC50 [2]: 5.2 nM

Compound: O=C(Cc1ccc(SCc2ccccc2C(=O)O)cc1)OCc1ccc(-n2cccn2)cc1 [Example 43, 2-[4-(4-Pyrazol-1-yl-benzyloxycarbonylmethyl)-phenylsulfanylmethyl]-benzoic acid]
- EC50 [1]: 16000 nM
- EC50 [2]: 4200 nM

Compound: O=C(OCc1nc(-c2ccccc2)oc1C(F)(F)F)c1ccc(CC(SCCc2ccc(F)cc2)C(=O)O)cc1 (stereo not shown) [Example 12, 4-{2-Carboxy-2-[2-(4-fluoro-phenyl)-ethylsulfanyl]-ethyl}-benzoic acid 2-phenyl-5 trifluoromethyl-oxazol-4-ylmethyl ester]
- EC50 [2]: 58 nM

Compound: CN1CCN(CC(=O)OCc2ccc(CC(SCCc3ccc(F)cc3)C(=O)O)cc2)CC1 (stereo not shown) [Example 11, 2-[2-(4-Fluoro-phenyl)-ethylsulfanyl]-3-{4-[2-(4-methyl-piperazin-1-yl)-acetoxymethyl]-phenyl}-propionic acid]
- EC50 [1]: 150 nM
- EC50 [2]: 810 nM

Compound: Cc1cccc(C)c1COC(=O)Cc1cccc(SCc2ccccc2C(=O)O)c1 [Example 41, 2-[3-(2,6-Dimethyl-benzyloxycarbonylmethyl)-phenylsulfanylmethyl]-benzoic acid]
- EC50 [1]: 15000 nM
- EC50 [2]: 3800 nM

Compound: COC(=O)C(Cc1ccccc1)OC(=O)Cc1cccc(SCc2ccccc2C(=O)O)c1 (stereo not shown) [Example 35, 2-[3-(1-Methoxycarbonyl-2-phenyl-ethoxycarbonylmethyl)-phenylsulfanylmethyl]-benzoic acid]
- EC50 [1]: 22000 nM
- EC50 [2]: 6000 nM

Compound: CC(C)Cc1ccc(C(C)C(=O)OCc2ccc(CC(SCCc3ccc(F)cc3)C(=O)O)cc2)cc1 (stereo not shown) [Example 9, 2-[2-(4-Fluoro-phenyl)-ethylsulfanyl]-3-{4-[2-(4-isobutyl-phenyl)-propionyloxymethyl]-phenyl}-propionic acid]
- EC50 [1]: 1500 nM
- EC50 [2]: 930 nM

Compound: C=CCC(OC(=O)Cc1ccc(SCc2ccccc2C(=O)O)cc1)c1ccccc1 (stereo not shown) [Example 34, 2-[4-(1-Phenyl-but-3-enyloxycarbonylmethyl)-phenylsulfanylmethyl]-benzoic acid]
- EC50 [1]: 18000 nM
- EC50 [2]: 15000 nM

Compound: CS(=O)(=O)Oc1ccc(COC(=O)c2ccc(CC(SCCc3ccc(F)cc3)C(=O)O)cc2)cc1 (stereo not shown) [Example 16, 4-{2-Carboxy-2-[2-(4-fluoro-phenyl)-ethylsulfanyl]-ethyl}-benzoic acid 4-methanesulfonyloxy-benzyl ester]
- EC50 [1]: 1100 nM

Compound: Cc1oc(-c2ccccc2)nc1CC(=O)OCc1ccc(CC(SCCc2ccc(F)cc2)C(=O)O)cc1 (stereo not shown) [Example 15, 2-[2-(4-Fluoro-phenyl)-ethylsulfanyl]-3-{4-[2-(5-methyl-2-phenyl-oxazol-4-yl)acetoxymethyl]-phenyl}-propionic acid]
- EC50 [1]: 130 nM
- EC50 [2]: 840 nM

Compound: CCOC(Cc1ccc(OC(=O)Cc2nc(-c3ccccc3)oc2C)c(C)c1)C(=O)O (stereo not shown) [Example 25, 2-Ethoxy-3-{3-methyl-4-[2-(5-methyl-2-phenyl-oxazol-4-yl)-acetoxy]-phenyl}-propionic acid]
- EC50 [2]: 43 nM

Compound: CS(=O)(=O)Oc1ccc(CCSC(=O)c2ccc(CC(SCCc3ccc(F)cc3)C(=O)O)cc2)cc1 (stereo not shown) [Example 18, 2-[2-(4-Fluoro-phenyl)-ethylsulfanyl]-3-{4-[2-(4-methanesulfonyloxy-phenyl)-ethylsulfanylcarbonyl]-phenyl}-propionic acid]
- EC50 [1]: 3400 nM

Compound: CCOC(Cc1ccc(OC(=O)Cc2ccc(NC(=O)OC(C)(C)C)cc2)c(C)c1)C(=O)O (stereo not shown) [Example 26, 3-{4-[2-(4-tert-Butoxycarbonylamino-phenyl)-acetoxy]-3-methyl-phenyl}-2-ethoxy-propionic acid]
- EC50 [2]: 73 nM
